Measurements reported in ChEMBL document CHEMBL1201862, “PubChem BioAssay data set” (2004).
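Dose response: 5 concentrations. Exposure: 48 h. Format: 96-well plates. Endpoint: linear interpolation; highest concentration if not reached. Here, GI50 denotes the concentration required for 50% inhibition of growth.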 The source made the active and inactive calls. Cut-off read from the data, not from the text of the source: active = GI50 up to about 1.1 µM and inactive = higher.

How the values were obtained:
Test in all cases: NCI anticancer screen, dose series, 48 h
HOP-92 = system: HOP-92
CAKI-1 = system: CAKI-1
COLO 205 = system: COLO 205
Hs-578T = system: Hs-578T
SK-MEL-2 = system: SK-MEL-2
A549 = system: A549
HOP-18 = system: HOP-18
MDA-N = system: MDA-N
MDA-MB-231 = system: MDA-MB-231
SW-620 = system: SW-620
SF-268 = system: SF-268
HOP-62 = system: HOP-62
HT-29 = system: HT-29
PC-3 = system: PC-3
OVCAR-4 = system: OVCAR-4
IGROV-1 = system: IGROV-1
786-0 = system: 786-0
OVCAR-8 = system: OVCAR-8
SR = system: SR
U-251 = system: U-251

| SMILES | GI50 (HOP-92) | GI50 (CAKI-1) | GI50 (COLO 205) | GI50 (Hs-578T) | GI50 (SK-MEL-2) | GI50 (A549) | GI50 (HOP-18) | GI50 (MDA-N) | GI50 (MDA-MB-231) | GI50 (SW-620) | GI50 (SF-268) | GI50 (HOP-62) | GI50 (HT-29) | GI50 (PC-3) | GI50 (OVCAR-4) | GI50 (IGROV-1) | GI50 (786-0) | GI50 (OVCAR-8) | GI50 (SR) | GI50 (U-251) |
| --- | --- | --- | --- | --- | --- | --- | --- | --- | --- | --- | --- | --- | --- | --- | --- | --- | --- | --- | --- | --- |
| O=C1/C(=C/c2ccc(O)cc2)CCC1CNc1ccc(Cl)cc1 (configuration not stated) | 14.7 µM (inactive) | 1.55 µM (inactive) | 1.19 µM (inactive) | 17.7 µM (inactive) | 14.4 µM (inactive) | 7.01 µM (inactive) | 6.08 µM (inactive) | 6.53 µM (inactive) | 3.04 µM (inactive) | 1.37 µM (inactive) | 3.2 µM (inactive) | 7.43 µM (inactive) | 1.53 µM (inactive) | 1.42 µM (inactive) | 2.96 µM (inactive) | 3.21 µM (inactive) | 1.83 µM (inactive) | 1.38 µM (inactive) | 0.914 µM (active) | 5.7 µM (inactive) |
| N#CC(NNC(=O)c1ccccc1O)c1c(O)ccc2ccccc12 (configuration not stated) | 5.71 µM (inactive) | 4.18 µM (inactive) | 13.2 µM (inactive) | 17.3 µM (inactive) | 3.72 µM (inactive) | 2.94 µM (inactive) | 2.04 µM (inactive) | 5.16 µM (inactive) | 3.2 µM (inactive) | 4.3 µM (inactive) | 3.24 µM (inactive) | 3.33 µM (inactive) | 20.3 µM (inactive) | 4.03 µM (inactive) | 2.58 µM (inactive) | 4.4 µM (inactive) | 4.56 µM (inactive) | 3.16 µM (inactive) | 1.46 µM (inactive) | 3.79 µM (inactive) |
| CC(C)[Si](OCC1CC(C#N)OC(C)(C)O1)(C(C)C)C(C)C (configuration not stated) | 21.7 µM (inactive) | 27.6 µM (inactive) | 17.3 µM (inactive) | – | 16.2 µM (inactive) | 30.8 µM (inactive) | 30.5 µM (inactive) | – | – | 18.9 µM (inactive) | 26.9 µM (inactive) | 23.7 µM (inactive) | 14.6 µM (inactive) | – | 30.3 µM (inactive) | 28.2 µM (inactive) | 18.8 µM (inactive) | 21.1 µM (inactive) | 18.1 µM (inactive) | 15.8 µM (inactive) |
| COC(=O)CC1CC2(C(=O)OC)c3[nH]c4ccccc4c3CCN2C1=O (configuration not stated) | > 100 µM (inactive) | > 100 µM (inactive) | > 100 µM (inactive) | – | > 100 µM (inactive) | > 100 µM (inactive) | > 100 µM (inactive) | – | – | > 100 µM (inactive) | > 100 µM (inactive) | > 100 µM (inactive) | > 100 µM (inactive) | – | > 100 µM (inactive) | > 100 µM (inactive) | > 100 µM (inactive) | > 100 µM (inactive) | > 100 µM (inactive) | > 100 µM (inactive) |
